Legend:
Test in all cases: Radiolabel SAMS kinase assay, GST-AMPK from HEK293T/17 cells immobilised on glutathione-Sepharose
Assay type in all cases: biochemical
Settings in all cases: 1 µM compound
human GST-AMPK α1β2γ1 = target: T1, human GST-AMPK α1β2γ1 (Homo sapiens, UniProt O43741+Q13131)
T1 construct: triply transfected with full-length AMPK α1 or α2 (NH2-terminal GST fusion, pDEST27 vector); full-length AMPK α1 or α2 (NH2-terminal GST fusion, pDEST27 vector), β1 or β2 (COOH-terminal FLAG fusion, pcDNA3.1 vector); FLAG (C); made in house; host or cells: HEK293T/17 cells, transient triple transfection
Summary of the method: (§1)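 GST-AMPK complexes were expressed in HEK293T/17 cells and immobilised on glutathione-Sepharose. Phosphorylation of 100 µM SAMS peptide was run with 200 µM ATP plus [γ-³²P]-ATP and 5 mM MgCl2 in HEPES pH 7.4, 10 min at 30°C, with or without 1 µM compound. ³²P incorporation was measured on phosphocellulose by scintillation counting.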

human GST-AMPK α2β2γ1 = target: T2, human GST-AMPK α2β2γ1 (Homo sapiens, UniProt O43741+P54646)
T2 construct: triply transfected with full-length AMPK α1 or α2 (NH2-terminal GST fusion, pDEST27 vector); full-length AMPK α1 or α2 (NH2-terminal GST fusion, pDEST27 vector), β1 or β2 (COOH-terminal FLAG fusion, pcDNA3.1 vector); FLAG (C); made in house; host or cells: HEK293T/17 cells, transient triple transfection
Summary of the method: as §1

human GST-AMPK α2β1γ1 = target: T3, human GST-AMPK α2β1γ1 (Homo sapiens, UniProt P54646+Q9Y478)
T3 construct: triply transfected with full-length AMPK α1 or α2 (NH2-terminal GST fusion, pDEST27 vector); full-length AMPK α1 or α2 (NH2-terminal GST fusion, pDEST27 vector), β1 or β2 (COOH-terminal FLAG fusion, pcDNA3.1 vector); FLAG (C); made in house; host or cells: HEK293T/17 cells, transient triple transfection
Summary of the method: as §1

Measured: fold AMPK activation relative to vehicle

T1 sequence (Q13131 whole entry, the tested form may be a part): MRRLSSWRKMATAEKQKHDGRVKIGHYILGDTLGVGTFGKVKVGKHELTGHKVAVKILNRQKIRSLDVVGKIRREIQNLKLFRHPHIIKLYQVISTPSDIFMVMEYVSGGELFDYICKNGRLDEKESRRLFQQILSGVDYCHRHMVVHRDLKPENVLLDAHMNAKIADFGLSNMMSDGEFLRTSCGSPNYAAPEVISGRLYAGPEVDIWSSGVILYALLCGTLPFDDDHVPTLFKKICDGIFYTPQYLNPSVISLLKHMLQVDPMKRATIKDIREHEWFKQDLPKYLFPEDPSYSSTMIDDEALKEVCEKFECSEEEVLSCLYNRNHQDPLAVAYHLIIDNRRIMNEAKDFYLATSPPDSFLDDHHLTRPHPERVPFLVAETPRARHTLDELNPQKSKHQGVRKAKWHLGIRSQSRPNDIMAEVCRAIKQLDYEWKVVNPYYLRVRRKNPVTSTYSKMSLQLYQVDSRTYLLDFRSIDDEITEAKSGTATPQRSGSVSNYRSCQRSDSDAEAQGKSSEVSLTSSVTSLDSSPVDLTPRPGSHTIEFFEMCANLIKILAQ
T1 sequence (O43741 whole entry, the tested form may be a part): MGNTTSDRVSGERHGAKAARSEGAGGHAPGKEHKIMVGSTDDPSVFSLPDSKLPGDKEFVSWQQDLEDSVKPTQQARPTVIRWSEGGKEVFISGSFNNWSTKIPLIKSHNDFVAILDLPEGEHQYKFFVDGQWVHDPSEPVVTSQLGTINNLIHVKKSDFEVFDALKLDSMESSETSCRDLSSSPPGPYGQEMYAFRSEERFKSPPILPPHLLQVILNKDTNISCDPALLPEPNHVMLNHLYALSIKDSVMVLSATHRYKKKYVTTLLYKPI
T1 sequence (P54619 whole entry partner, the tested form may be a part): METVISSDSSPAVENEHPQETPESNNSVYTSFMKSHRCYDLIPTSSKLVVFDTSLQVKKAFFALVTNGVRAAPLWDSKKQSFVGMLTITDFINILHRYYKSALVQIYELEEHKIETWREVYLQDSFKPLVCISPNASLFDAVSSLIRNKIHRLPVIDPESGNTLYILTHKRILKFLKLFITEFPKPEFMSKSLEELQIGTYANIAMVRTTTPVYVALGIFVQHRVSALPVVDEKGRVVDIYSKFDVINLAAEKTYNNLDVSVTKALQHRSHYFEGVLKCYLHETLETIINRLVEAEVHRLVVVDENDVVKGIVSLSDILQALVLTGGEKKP
T2 sequence (P54646 whole entry, the tested form may be a part): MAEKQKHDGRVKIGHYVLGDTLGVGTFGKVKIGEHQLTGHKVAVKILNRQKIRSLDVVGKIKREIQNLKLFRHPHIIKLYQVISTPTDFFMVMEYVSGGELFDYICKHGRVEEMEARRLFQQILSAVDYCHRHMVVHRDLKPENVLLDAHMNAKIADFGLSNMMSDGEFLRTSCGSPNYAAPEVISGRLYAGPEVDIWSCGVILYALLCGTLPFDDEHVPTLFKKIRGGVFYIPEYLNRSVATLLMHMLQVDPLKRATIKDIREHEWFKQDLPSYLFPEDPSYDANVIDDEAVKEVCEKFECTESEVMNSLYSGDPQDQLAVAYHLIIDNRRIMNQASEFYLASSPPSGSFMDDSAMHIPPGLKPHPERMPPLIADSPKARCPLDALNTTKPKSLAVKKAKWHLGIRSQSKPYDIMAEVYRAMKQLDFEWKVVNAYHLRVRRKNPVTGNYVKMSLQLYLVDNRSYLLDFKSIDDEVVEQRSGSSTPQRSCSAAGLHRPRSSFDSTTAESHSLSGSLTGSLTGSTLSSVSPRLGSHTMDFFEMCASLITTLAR
T2 sequence (O43741 whole entry, the tested form may be a part): as the sequence (O43741 whole entry, the tested form may be a part) above
T2 sequence (P54619 whole entry partner, the tested form may be a part): as the sequence (P54619 whole entry partner, the tested form may be a part) above
T3 sequence (P54646 whole entry, the tested form may be a part): as the sequence (P54646 whole entry, the tested form may be a part) above
T3 sequence (Q9Y478 whole entry, the tested form may be a part): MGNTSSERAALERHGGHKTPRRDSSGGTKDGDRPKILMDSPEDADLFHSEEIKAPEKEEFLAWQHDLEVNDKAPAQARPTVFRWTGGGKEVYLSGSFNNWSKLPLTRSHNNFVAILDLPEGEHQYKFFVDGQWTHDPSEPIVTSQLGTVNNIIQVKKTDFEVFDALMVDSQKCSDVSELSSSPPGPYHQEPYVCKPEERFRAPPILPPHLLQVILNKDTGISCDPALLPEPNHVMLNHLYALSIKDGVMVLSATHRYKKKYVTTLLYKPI
T3 sequence (P54619 whole entry partner, the tested form may be a part): as the sequence (P54619 whole entry partner, the tested form may be a part) above

CC(=O)NC1CC=C(c2ccc(-c3nc4nc(Oc5ccc(C)c(C(=O)O)c5)[nH]c4cc3Cl)cc2)CC1 (stereo not drawn) [MSG011, 5-((5-(4′-Acetamido-2′,3′,4′,5′-tetrahydro-[1,1′-biphenyl]-4-yl)-6-chloro-1H-imidazo[4,5-b]pyridin-2-yl)oxy)-2-methylbenzoic acid]
> 2.2 fold: all assays above

Reference: publication PMC9317966, “Structure-function analysis of the AMPK activator SC4 and identification of a potent pan AMPK activator” (Biochemical Journal, 2022)
